Target: T1, human RORgT (Homo sapiens, UniProt P51449)
T1 construct: expressed in transfected cells; host or cells: engineered Jurkat cells (Jurkat pEx/Gal/hRORγ CLBD/HYG pG5luc/blast)
T1 sequence (P51449 267-516): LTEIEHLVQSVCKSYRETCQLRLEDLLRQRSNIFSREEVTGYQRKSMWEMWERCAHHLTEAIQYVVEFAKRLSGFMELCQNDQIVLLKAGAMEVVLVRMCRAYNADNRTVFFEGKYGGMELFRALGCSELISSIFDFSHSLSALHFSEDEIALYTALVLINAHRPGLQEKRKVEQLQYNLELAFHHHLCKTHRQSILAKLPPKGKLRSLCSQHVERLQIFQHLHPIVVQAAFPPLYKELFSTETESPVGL
Assay: RORgT Gal4 Luciferase Reporter Gene Assay
Assay type: cell-based
Conditions: engineered Jurkat cells overexpressing RORgT (LBD or full length) fused with Gal4 Luc reporter; 18 hours incubation

| SMILES | EC50 |
| --- | --- |
| O=S(=O)(c1ccc(F)cc1)C1(c2ccc(OCCc3ccccc3)cc2)CCCC1 [Example 4, 1-[1-(4-fluorobenzenesulfonyl)cyclopentyl]-4-(2-phenylethoxy)benzene] | 139 nM |
| O=S(=O)(c1ccccc1)C1(c2ccc(OCc3cccc(F)c3)cc2)CCCC1 [Example 11, 1-[1-(benzenesulfonyl)cyclopentyl]-4-[(3-fluorophenyl)methoxy]benzene] | 397 nM |
| O=C(C1CCS(=O)(=O)CC1)N1CCC(c2ccc(OCc3ccc(F)cc3Cl)cc2)(S(=O)(=O)c2ccccc2)C1 (stereo not drawn) [Example 31, 4-[3-(benzenesulfonyl)-3-{4-[(2-chloro-4-fluorophenyl)methoxy]phenyl}pyrrolidine-1-carbonyl]-1λ^6-thiane-1,1-dione] | 343 nM |
| O=C(C1CCS(=O)(=O)CC1)N1CCC(c2ccc(OCc3c(F)ccc(F)c3Cl)cc2)(S(=O)(=O)c2ccccc2)C1 (stereo not drawn) [Example 27, 4-[3-(benzenesulfonyl)-3-{4-[(2-chloro-3,6-difluorophenyl)methoxy]phenyl}pyrrolidine-1-carbonyl]-1λ^6-thiane-1,1-dione] | 109 nM |
| O=S(=O)(c1ccccc1)C1(c2ccc(OCc3ccccc3)cc2)CCCC1 [Example 6, 1-[1-(benzenesulfonyl)cyclopentyl]-4-(benzyloxy)benzene] | 130 nM |
| NC(=O)N1CCC(C(=O)N2CCC(c3ccc(OCc4c(Cl)cccc4Cl)cc3)(S(=O)(=O)c3ccccc3)C2)CC1 (stereo not drawn) [Example 25, 4-[3-(benzenesulfonyl)-3-{4-[(2,6-dichlorophenyl)methoxy]phenyl}pyrrolidine-1-carbonyl]piperidine-1-carboxamide] | 267 nM |
| O=C(O)[C@H]1CC[C@H](C(=O)N2CC[C@](c3ccc(OCc4c(Cl)cccc4Cl)cc3)(S(=O)(=O)c3ccc(F)cc3)C2)CC1 [Example 35, (1r,4r)-4-[(3R)-3-{4-[(2,6-dichlorophenyl)methoxy]phenyl}-3-(4-fluorobenzenesulfonyl)pyrrolidine-1-carbonyl]cyclohexane-1-carboxylic acid] | 58 nM |
| O=C(O)[C@H]1CC[C@H](C(=O)N2CC[C@](c3ccc(OCc4c(F)cccc4C(F)(F)F)cc3)(S(=O)(=O)c3ccccc3)C2)CC1 [Example 41, (1r,4r)-4-[(3R)-3-(benzenesulfonyl)-3-(4-{[2-fluoro-6-(trifluoromethyl)phenyl]methoxy}phenyl)pyrrolidine-1-carbonyl]cyclohexane-1-carboxylic acid] | 88 nM |
| O=S(=O)(c1ccccc1)C1(c2ccc(OCc3ccccc3F)cc2)CCCC1 [Example 13, 1-[1-(benzenesulfonyl)cyclopentyl]-4-[(2-fluorophenyl)methoxy]benzene] | 203 nM |
| O=C(N1CC[C@](c2ccc(OCc3c(F)cccc3C(F)(F)F)cc2)(S(=O)(=O)c2ccc(F)cc2)C1)C1(O)CCS(=O)(=O)CC1 [Example 43, 4-[(3R)-3-(4-{[2-fluoro-6-(trifluoromethyl)phenyl]methoxy}phenyl)-3-(4-fluorobenzenesulfonyl)pyrrolidine-1-carbonyl]-4-hydroxy-1λ^6-thiane-1,1-dione] | 14 nM |
| O=C(Cc1ccncc1)N1CCC(c2ccc(OCc3ccccc3)cc2)(S(=O)(=O)c2cccc(C(F)(F)F)c2)C1 (stereo not drawn) [Example 22, 1-{3-[4-(benzyloxy)phenyl]-3-[3-(trifluoromethyl)benzenesulfonyl]pyrrolidin-1-yl}-2-(pyridin-4-yl)ethan-1-one] | 514 nM |
| NC(=O)[C@H]1CC[C@H](C(=O)N2CC[C@](c3ccc(OCc4c(F)cccc4C(F)(F)F)cc3)(S(=O)(=O)c3ccc(F)cc3)C2)CC1 [Example 44, (1r,4r)-4-[(3R)-3-(4-{[2-fluoro-6-(trifluoromethyl)phenyl]methoxy}phenyl)-3-(4-fluorobenzenesulfonyl)pyrrolidine-1-carbonyl]cyclohexane-1-carboxamide] | 195 nM |
| O=S(=O)(c1ccccc1)C1(c2ccc(OCCC3CC3)cc2)CCCC1 [Example 14, 1-[1-(benzenesulfonyl)cyclopentyl]-4-(2-cyclopropylethoxy)benzene] | 423 nM |
| O=C(N1CC[C@](c2ccc(OCc3c(F)cccc3C(F)(F)F)cc2)(S(=O)(=O)c2ccccc2)C1)C1(O)CCS(=O)(=O)CC1 [Example 40, 4-[(3R)-3-(benzenesulfonyl)-3-(4-{[2-fluoro-6-(trifluoromethyl)phenyl]methoxy}phenyl)pyrrolidine-1-carbonyl]-4-hydroxy-1λ^6-thiane-1,1-dione] | 18 nM |
| O=C(C1CCS(=O)(=O)CC1)N1CCC(c2ccc(OCc3c(F)cccc3Cl)cc2)(S(=O)(=O)c2ccccc2)C1 (stereo not drawn) [Example 29, 4-[3-(benzenesulfonyl)-3-{4-[(2-chloro-6-fluorophenyl)methoxy]phenyl}pyrrolidine-1-carbonyl]-1λ^6-thiane-1,1-dione] | 39 nM |
| O=S(=O)(c1ccc(Cl)cc1)C1(c2ccc(OCc3ccccc3)cc2)CCCC1 [Example 9, 1-(benzyloxy)-4-[1-(4-chlorobenzenesulfonyl)cyclopentyl]benzene] | 212 nM |
| O=C(C1CCS(=O)(=O)CC1)N1CCC(c2ccc(OCc3c(Cl)cccc3Cl)cc2)(S(=O)(=O)c2ccccc2)C1 (stereo not drawn) [Example 23, 4-[3-(benzenesulfonyl)-3-{4-[(2,6-dichlorophenyl)methoxy]phenyl}pyrrolidine-1-carbonyl]-1λ^6-thiane-1,1-dione] | 46 nM |
| NC(=O)[C@H]1CC[C@H](C(=O)N2CC[C@](c3ccc(OCc4c(Cl)cccc4C(F)(F)F)cc3)(S(=O)(=O)c3ccc(F)cc3)C2)CC1 [Example 45, (1r,4r)-4-[(3R)-3-(4-{[2-chloro-6-(trifluoromethyl)phenyl]methoxy}phenyl)-3-(4-fluorobenzenesulfonyl)pyrrolidine-1-carbonyl]cyclohexane-1-carboxamide] | 351 nM |
| C[C@H](Oc1ccc([C@]2(S(=O)(=O)c3ccc(F)cc3)CCN(C(=O)C3CCS(=O)(=O)CC3)C2)cc1)c1ccccc1 [Example 37, 4-[(3R)-3-(4-fluorobenzenesulfonyl)-3-{4-[(1S)-1-phenylethoxy]phenyl}pyrrolidine-1-carbonyl]-1λ^6-thiane-1,1-dione] | 77 nM |
| O=C(C1CCS(=O)(=O)CC1)N1CCC(c2ccc(OCc3ccccc3Cl)cc2)(S(=O)(=O)c2ccccc2)C1 (stereo not drawn) [Example 28, 4-[3-(benzenesulfonyl)-3-{4-[(2-chlorophenyl)methoxy]phenyl}pyrrolidine-1-carbonyl]-1λ^6-thiane-1,1-dione] | 187 nM |
| O=C(O)[C@H]1CC[C@H](C(=O)N2CC[C@](c3ccc(OCc4c(F)cccc4C(F)(F)F)cc3)(S(=O)(=O)c3ccc(F)cc3)C2)CC1 [Example 42, (1r,4r)-4-[(3R)-3-(4-{[2-fluoro-6-(trifluoromethyl)phenyl]methoxy}phenyl)-3-(4-fluorobenzenesulfonyl)pyrrolidine-1-carbonyl]cyclohexane-1-carboxylic acid] | 47 nM |
| O=S(=O)(c1cccc(Cl)c1)C1(c2ccc(OCc3ccccc3)cc2)CCCC1 [Example 5, 1-(benzyloxy)-4-[1-(3-chlorobenzenesulfonyl)cyclopentyl]benzene] | 240 nM |
| O=C(N1CC[C@](c2ccc(OCc3c(Cl)cccc3C(F)(F)F)cc2)(S(=O)(=O)c2ccc(F)cc2)C1)C1(O)CCS(=O)(=O)CC1 [Example 46, 4-[(3R)-3-(4-{[2-chloro-6-(trifluoromethyl)phenyl]methoxy}phenyl)-3-(4-fluorobenzenesulfonyl)pyrrolidine-1-carbonyl]-4-hydroxy-1λ^6-thiane-1,1-dione] | 42 nM |
| O=C1NC(=O)C(CC(=O)N2CCC(c3ccc(OCc4ccccc4)cc3)(S(=O)(=O)c3ccc(F)cc3)C2)S1 (stereo not drawn) [Example 20, 5-(2-{3-[4-(benzyloxy)phenyl]-3-(4-fluorobenzenesulfonyl)pyrrolidin-1-yl}-2-oxoethyl)-1,3-thiazolidine-2,4-dione] | 810 nM |
| O=C(C1CCS(=O)(=O)CC1)N1CCC(c2ccc(OCc3ccccc3C(F)(F)F)cc2)(S(=O)(=O)c2ccccc2)C1 (stereo not drawn) [Example 32, 4-[3-(benzenesulfonyl)-3-(4-{[2-(trifluoromethyl)phenyl]methoxy}phenyl)pyrrolidine-1-carbonyl]-1λ^6-thiane-1,1-dione] | 84 nM |
| O=C(C1CCS(=O)(=O)CC1)N1CCC(c2ccc(OCc3c(F)cccc3C(F)(F)F)cc2)(S(=O)(=O)c2ccccc2)C1 (stereo not drawn) [Example 30, 4-[3-(benzenesulfonyl)-3-(4-{[2-fluoro-6-(trifluoromethyl)phenyl]methoxy}phenyl)pyrrolidine-1-carbonyl]-1λ^6-thiane-1,1-dione] | 28 nM |
| O=C(C1CCS(=O)(=O)C1)N1CCC(c2ccc(OCc3ccccc3)cc2)(S(=O)(=O)c2ccc(F)cc2)C1 (stereo not drawn) [Example 19, 3-{3-[4-(benzyloxy)phenyl]-3-(4-fluorobenzenesulfonyl)pyrrolidine-1-carbonyl}-1λ^6-thiolane-1,1-dione] | 672 nM |
| O=S(=O)(c1ccccc1)C1(c2ccc(OCC3CCCCC3)cc2)CCCC1 [Example 10, 1-[1-(benzenesulfonyl)cyclopentyl]-4-(cyclohexylmethoxy)benzene] | 328 nM |
| O=C(Cn1ccnn1)N1CCC(c2ccc(OCc3ccccc3)cc2)(S(=O)(=O)c2ccc(F)cc2)C1 (stereo not drawn) [Example 17, 1-{3-[4-(benzyloxy)phenyl]-3-(4-fluorobenzenesulfonyl)pyrrolidin-1-yl}-2-(1H-1,2,3-triazol-1-yl)ethan-1-one] | 526 nM |
| O=C(O)[C@H]1CC[C@H](C(=O)N2CCC(c3ccc(OCc4c(Cl)cccc4Cl)cc3)(S(=O)(=O)c3ccccc3)C2)CC1 (stereo partly drawn) [Example 24, (1r,4r)-4-[3-(benzenesulfonyl)-3-{4-[(2,6-dichlorophenyl)methoxy]phenyl}pyrrolidine-1-carbonyl]cyclohexane-1-carboxylic acid] | 552 nM |

From patent US12012374B2, “Agonists of ROR GAMMAt” (BRISTOL-MYERS SQUIBB COMPANY, priority 2019, dated 2024)
